Tests used:
[1] = Therapeutic index value was evaluated as the ratio of IC50/EC50; settings: read-out: TI
[2] = system: H9; assay: Anti-HIV activity was evaluated as the concentration required to inhibit HIV-1 replication in H9 lymphocyte cells by 50%; type: functional, cell-based; settings: Homo sapiens
[3] = system: H9; assay: Anti-HIV activity was evaluated as the concentration required to inhibit the growth of uninfected H9 lymphocyte cells by 50%; type: functional, cell-based; settings: Homo sapiens

**Q.** With `CC1(C)Oc2ccc3c(-c4ccccc4)cc(=S)oc3c2[C@@H](OC(=O)C23CCC(C)(C(=O)O2)C3(C)C)[C@H]1OC(=O)C12CCC(C)(C(=O)O1)C2(C)C` (stereo partly drawn) as the molecule, how does the selectivity ratio [1] read?
**A.** Its selectivity ratio is over 56.6.

**Q.** What about the EC50 [2] of the same molecule?
**A.** Its EC50 is 2480 nM.

**Q.** And the IC50 [3]?
**A.** The IC50 was over 140 µM.

**Q.** Which results are given for `CC1(C)Oc2ccc3ccc(=S)oc3c2[C@@H](OC(=O)C23CCC(C)(C(=O)O2)C3(C)C)[C@H]1OC(=O)C12CCC(C)(C(=O)O1)C2(C)C` (stereo partly drawn)?
**A.** selectivity ratio [1]: > 5390; EC50 [2]: 29 nM; IC50 [3]: > 156 µM

**Q.** For `Cc1cc(=S)oc2c3c(ccc12)OC(C)(C)[C@H](OC(=O)C12CCC(C)(C(=O)O1)C2(C)C)[C@@H]3OC(=O)C12CCC(C)(C(=O)O1)C2(C)C` (stereo partly drawn), which selectivity ratio [1] is on record?
**A.** Its selectivity ratio is over 21300.

**Q.** And the EC50 [2]?
**A.** The EC50 was 7.18 nM.

**Q.** What about the IC50 [3] of the same molecule?
**A.** The IC50 was over 153 µM.

**Q.** Which selectivity ratio [1] does the source give for `CCCc1cc(=S)oc2c3c(ccc12)OC(C)(C)[C@H](OC(=O)C12CCC(C)(C(=O)O1)C2(C)C)[C@@H]3OC(=O)C12CCC(C)(C(=O)O1)C2(C)C` (stereo partly drawn) here?
**A.** Its selectivity ratio is over 1150.

**Q.** What about the EC50 [2] of the same molecule?
**A.** The EC50 was 128 nM.

**Q.** What about the IC50 [3] of the same molecule?
**A.** The IC50 was over 148 µM.

**Q.** Which selectivity ratio [1] does the source give for `CC1(C)Oc2ccc3ccc(=O)oc3c2[C@@H](OC(=O)C23CCC(C)(C(=O)O2)C3(C)C)[C@H]1OC(=O)C12CCC(C)(C(=O)O1)C2(C)C` (stereo partly drawn) here?
**A.** Its selectivity ratio is 137000.

Reference: ChEMBL document CHEMBL1130836, “Anti-AIDS agents. 31. Synthesis and anti-HIV activity of 4-substituted 3',4'-di-O-(-)-camphanoyl-(+)-cis-khellactone (DCK) thiolactone analogs” (Bioorg Med Chem Lett, 1998)
